A word on the melting point: it is the temperature, or range, at which the solid turns liquid.

`COC(=O)c1cc2cc(C)ccc2s1` yielded a melting point of 78 to 79 °C. The same measure for `CSCC#Cc1cc(F)c2ncc(C(=O)NCc3ccc(Cl)cc3)c(O)c2c1`: 259 to 261 °C; for `COc1c(CN2CCOCC2)cccc1-c1nc2c(N[C@H]3[C@@H](C(N)=O)[C@@H]4C=C[C@H]3C4)c(Cl)cnc2[nH]1`: 133 to 137 °C. For the compound `O=C(c1ccccc1)c1ccccc1Nc1ncccc1[N+](=O)[O-]`, the melting point stood at 85 °C. The figure for `CCc1nc2c(cnn2CC)c(NC2CCOCC2)c1CNC(=O)c1cccc(C(=O)NCc2cc(Cl)cc(-c3cccc(CN4CC(C)NC(C)C4)c3)c2)c1` (stereo not drawn) is 112 to 114 °C.

With `Cc1cc(CC(=O)N[C@H]2CC[C@H](CCN3CCC(c4cccc5c4CCO5)CC3)CC2)on1`, the melting point amounted to 188 °C. The compound `Cc1nc(NC(=N)N)sc1C=O` had a melting point of 176 to 178 °C. The figure for `NS(=O)(=O)c1cc(C(=O)OCC(=O)N2CCC[C@@H]2CO[N+](=O)[O-])c(NCc2ccco2)cc1Cl` is 64 to 66 °C. Turning to `CCCCCC(C)C(C)c1cc(O)c2c(c1)OC(C)(C)C1=C2CN(CC(=O)NC)CC1` (stereo not drawn), the melting point fell in the range of 131 to 134 °C. Compound `O=C(COc1ccc(Cl)cc1)C1(Cl)CC1` showed a melting point of 78 °C. The figure for `CN1C(C(=O)Nc2ccccc2)=C(O)c2ccc3ccccc3c2S1(=O)=O` is 273 to 274 °C. The compound `COC(=O)c1cc(C(=O)OC)cc(P(=O)(c2ccccc2)c2ccccc2)c1` returned a melting point of 170 to 171 °C. The same measure for `O=C(CCCC(Cl)=C(C(=O)O)c1csc(NC(=O)OCc2ccccc2)n1)OCc1ccccc1`: 146 to 147 °C; for `CC(C)(C)OC(=O)Nc1ccc(-c2ccccc2)cc1[N+](=O)[O-]`: 119 to 121 °C; for `CNS(=O)(=O)CCS(C)(=O)=O`: 116 to 117 °C. Compound `CCCCc1ccc(NC(=O)c2ccc([N+](=O)[O-])cc2)cc1` displayed a melting point of 151 to 152 °C.

Consider `OC(c1ccccc1)(c1cccc(C(F)(F)F)c1)c1ncc[nH]1` (stereo not drawn), for which the melting point was 152 °C. With `COc1cccc(C(=O)c2ccc(OCc3nc(-c4ccccc4)oc3C)cc2)c1O`, the melting point was 152 to 153 °C. The figure for `Cc1csc(-c2ccc3c(ccn3S(=O)(=O)c3ccccc3)c2)n1` is 209 to 210 °C.

The compound `C=CCn1c(=S)n(C2OC(CO)C(O)C2O)c2nc(N)[nH]c(=O)c21` (stereo not drawn) showed a melting point above 230 °C. `COc1ccc2c(c1)nnc1c(C)nc(-c3cc(Cl)ccc3Cl)n12` returned a melting point of 144 to 147 °C. Consider `COC(=O)c1ccc(I)nc1`, for which the melting point is 134 to 135 °C.

`N#CC(F)(F)C(O)(Cn1cncn1)c1ccc(F)cc1F` (stereo not drawn) returned a melting point of 130 to 132 °C.

`CCOC(=O)c1cn(Cc2ccccc2)nc1NC(=O)NC(C)(C)C` registered a melting point of 130 to 131 °C. In the case of `Nc1ccc2c(c1)C(=O)CC2`, the melting point lay in the range of 168 to 171 °C. For `Cc1nc2cc3c(cc2c(=O)[nH]1)C(N(C)c1ccc(C(=O)NC(CCc2nnnn2CC(=O)O)C(=O)O)c(F)c1)CC3` (mixture of isomers), the melting point was 232 to 235 °C.

`O=C(Cl)N1CCC(Oc2cc(Cl)cc(Cl)c2)C1` (stereo not drawn) came in with a melting point of 105 to 107 °C. For `O=C(OC(c1ccccc1)c1ccccc1)C(O)Cc1ccc(F)cc1` (stereo not drawn), the melting point was in the range of 52 to 54 °C. Consider `Cc1ccc(S(=O)(=O)N(C)c2ccc([N+](=O)[O-])cc2C)cc1`, for which the melting point lay within 103 to 104 °C.

In turn, `CC(C)(C)OC(=O)NC1CCN(c2ccc(C#N)cc2)CC1` returned a melting point of 188 to 189 °C. `CC(C)C(=S)Nc1ccc([N+](=O)[O-])c(C(F)(F)F)c1`: the melting point was 74 to 76 °C. The same measure for `CN(C)C(=O)c1ccccc1-c1ccc(C(=O)N2Cc3ccc(C(=O)NCc4cccnc4)n3Cc3ccccc32)cc1`: 206 to 207 °C. For `O=Cc1c2ccccc2cc2cc3ccccc3cc12`, the melting point lay within 163 to 164 °C. In turn, `O=C(O)CCCc1cc2nc(Cl)ccc2n1S(=O)(=O)c1ccc2c(c1)OCCO2` yielded a melting point of 166 °C.

Compound `Cc1ccnc2c1N=C(C#N)c1cccnc1N2C1CC1` yielded a melting point of 192 to 193 °C.

For the compound `CCC(CC)OC(=O)c1ccc(C(=O)NS(=O)(=O)c2cccc(C(=O)NCCc3ccccc3)c2)cn1`, the melting point is 189 to 191 °C.

`CC(=O)Nc1ccc(Sc2ccc(Br)cc2)cc1` gave a melting point of 153 to 155 °C. Consider `O=C1c2ccccc2C(=O)N1CC(=O)N1c2ccccc2N(Cc2ccncc2)C(=O)[C@H]2CCC[C@H]21` (relative stereo), for which the melting point lay in the range of 211 to 212 °C. In the case of `C#CC(O)COc1ccc(F)cc1` (stereo not drawn), the melting point fell in the range of 46 to 47 °C. On to `O=C1N=C(N2CCOCC2)SC1=Cc1cc(-c2ccc(O)c(C34CC5CC(CC(C5)C3)C4)c2)ccc1O`, for which the melting point lay within 325 to 330 °C. Regarding `Cc1ccc(S(=O)(=O)NC(=O)C(c2cc3c(cc2Cl)OCO3)c2cn(C)c3cc(CO)ccc23)cc1` (stereo not drawn), the melting point was in the range of 207 to 209 °C. As for `O=C(CC1CCCCC1)Nc1c(Cl)ccc2nc(CCCCc3nnn[nH]3)ccc12`, the melting point was 192 to 195 °C. The compound `O=C(O)c1cc2ccccc2c(Cl)c1O` showed a melting point of 234 to 235 °C.

As to `CC(=O)n1nc(S(=O)(=O)Cl)nc1N`, the melting point is 166 to 168 °C.

In turn, `Cc1nc2sccn2c(=O)c1CCN1CCC(c2noc3cc(F)ccc23)CC1` had a melting point of 165 °C.

Regarding `CCOC(=O)CCCN1C(=O)c2ccc(N/C(=C3\C(=O)Nc4ccccc43)c3ccccc3)cc2C1=O`, the melting point lay in the range of 78 to 80 °C.

Compound `COc1ccc(C2CCN(CCCCc3ccccc3)CC2)cc1` came in with a melting point of 48 to 50 °C. For `CC(C)(C)c1cc(-n2nc3ccc(C(F)(F)F)cc3n2)c(O)c(C(C)(C)C)c1`, the melting point is 131 to 133 °C. Compound `CC(C)(C)OC(=O)N1CC(CC=O)C1` came in with a melting point of 52 to 54 °C. As to `CS(=O)(=O)c1ccc(-n2nc(C(F)(F)F)cc2-c2nc3ccc(F)cc3s2)cc1`, the melting point is 194 to 196 °C. For `O=S1(=O)c2ccccc2C(c2ccccc2)N1CCN1CCC(Cc2c[nH]c3ccc(F)cc23)CC1` (stereo not drawn), the melting point turned out to be 175 °C. The figure for `Cc1ccnc(-c2ccc(C(F)(F)F)cc2)n1` is 50 °C; for `N#Cc1c[nH]cc1-c1cccc(F)c1` it is 140 to 142 °C; for `Cc1nn(C)c(C2=NC(C)C(C)N2)c1N` (stereo not drawn) it is 250 °C.

Take `O=C(NCc1ccncc1)Nc1cccc2ccccc12`: the melting point amounted to 178 °C. The compound `COC(=O)c1cc(Cl)c(NC(C)=O)c2c1OCCC2` registered a melting point of 184 °C. Consider `O=S(=O)(c1ccccc1)n1c(Sc2cc(Cl)cc(Cl)c2)cc2cc(Cl)ccc21`, for which the melting point fell in the range of 121 to 122 °C. Take `CS(=O)(=O)Nc1cc2occ(NC=O)c(=O)c2cc1Oc1ccccc1`: the melting point is 236 to 238 °C. Compound `Cc1ccc(S(=O)(=O)Nc2ccccc(=O)c2O)cc1` gave a melting point of 177 to 179 °C. The same measure for `CCOc1cc2c(cc1OCC)C(C(S)(C#N)c1ccc(Cl)cc1)=NCC2` (stereo not drawn): 157 to 160 °C; for `COc1ccc([C@@H]2Cc3c(Cl)cccc3NC(=O)[C@@H]2O)cc1`: 191 to 193 °C; for `O=S(=O)(c1ccccc1)n1nc(-c2ccncc2)nc1-c1ccncc1`: 210 to 212 °C.

In turn, `COc1nc(NN)c(C(F)(F)F)cc1Cl` showed a melting point of 140 to 142 °C.

Compound `COc1ccc2oc(Cc3ccccc3OC)c(CC#N)c2c1` displayed a melting point of 122 °C. In the case of `C=Cc1cc(C)cc(C)c1CC(=O)N(C)C1(C(=O)OC)CCN(OC)CC1`, the melting point lay within 160 to 162 °C. Regarding `O=C(O)COc1ccc(SCc2ccc(OCc3cc(Cl)cc(Cl)c3)cc2)c2c1CCC2`, the melting point was in the range of 134 to 135 °C.

`CCCn1c(=O)c2c(nc(/C=C/c3ccc(O)c(OC)c3)n2C)n(CCC)c1=O` returned a melting point of 187 to 188 °C. With `O=C(NCCN1CCCC1)Nc1ccc(-c2cnc(COCc3cc4ccccc4o3)o2)cc1`, the melting point is 124 to 126 °C. As for `CC1=C(CC(=O)O)CN(C)N1`, the melting point fell in the range of 191 to 192 °C. The same measure for `O=C(O)c1cccc2c1CCc1cc(C(F)(F)F)ccc1S2`: 178 to 180 °C; for `CN1C(=O)[C@H](NC(=O)/C=C/c2ccccc2Br)N=C(c2ccccc2)c2ccccc21`: 113 to 116 °C.

`NC(=O)c1ccnc(N2CCN(Cc3ccc(F)cc3)C2=O)c1`: the melting point is 206 to 208 °C.

Turning to `COCc1nc2cc3c(cc2c(=O)[nH]1)C(Nc1ccc(C(=O)OC(C)(C)C)cc1)CC3` (racemic), the melting point was above 122 °C. Consider `Nc1nc(-c2ccc(NC(=O)CN(Cc3ccccc3)S(=O)(=O)N3CCOCC3)cc2)cs1`, for which the melting point was 193 to 194 °C. Compound `Cc1oc(-c2ccccc2)nc1COc1ccc(CO)cc1` yielded a melting point of 128 to 129 °C.

`[O-][N+]1=C(c2ccccc2F)c2cc(Cl)ccc2-n2cnc(N3CCCC3)c2C1` showed a melting point of 190 to 192 °C. The figure for `COc1ccc2c(c1)C(N)=NCC2` is 114 to 118 °C.

Take `COc1ccc(CN(C)CCOc2ccc(NC(=O)c3cc(SC)cc4c(=O)c5ccccc5[nH]c34)cc2)cc1OC`: the melting point was 170 °C. On to `Cc1cc(C#N)cc(C)c1Oc1nc(Nc2ccc(C#N)cc2)ncc1N`, for which the melting point is above 300 °C. `O=C(O)c1ccc(NCCOc2ccccc2)cc1` showed a melting point of 172 to 175 °C. As to `CCCCn1c(=O)c2cc(C(=O)OCC)cn2c2cc(Cl)ccc21`, the melting point is 172 to 174 °C. Turning to `Cc1ccc(N)c2c1CCC2=NNC(=N)N`, the melting point was above 250 °C. In turn, `CC(C)(C)OC(=O)NCCNC(=O)c1n[nH]cc1-c1ccccc1` yielded a melting point of 71 °C. Compound `O=C1NC(=O)C(Cc2ccc3cc(OCc4ccccc4F)ccc3c2)S1` (stereo not drawn) returned a melting point of 150 to 152 °C. For `Cc1ccc(C2=NN=CNC2C)cc1` (stereo not drawn), the melting point came to 246 °C. Regarding `COc1cc(N)c(Cl)cc1C(=O)NCC1CCN(CCCCCC(=O)c2csc3ccccc23)CC1`, the melting point lay in the range of 130 to 132 °C. Take `OCCNc1ccc(C2CCCCC2)cc1`: the melting point was 39 to 41 °C. For the compound `CC(=O)NCc1cn(-c2ccc(-n3cccc3)c(F)c2)nn1`, the melting point is 210 to 215 °C.

The record behind these values is a melting point compilation (Tetko et al.; mined from patent text by program, amines drawn as free bases though some values may be those of a salt).
